These results are taken from patent US20220227776A1, “PRODRUGS OF 1'-S[…]-NUCLEOSIDE ANALOGUES FOR ANTIVIRAL TREATMENT” (Copycat Sciences Inc., priority 2020, published 2022).

Series [1] can be described thus: Thermodynamic solubility at pH 7.4. Type of series: physicochemical. From the text:
(§1) As summarized in Table 8, these studies indicate that CAT002 is an efficient prodrug of GS-441524 that is well-suited for clinical development as an oral agent.

Series [2] in a line: Phosphate buffer stability at 25° C. Format: physicochemical.
Text: as §1

The subject of the next series is Caco-2. The experiment in a line: Caco-2 permeability AB/BA. Format: in vitro ADME. As to conditions: for Caco-2 permeability AB: AB direction; for Caco-2 permeability BA: BA direction; for Caco-2 Efflux: BA/AB. (In general: Caco-2 monolayers are a common model of the intestinal barrier.)
A short description of series [3]: Human intestinal S9 stability at 37° C. Type of series: in vitro ADME. From the text:
Across all species tested, CAT002 was efficiently metabolized to the core nucleoside GS-441524 when administered orally, indicating efficient first-pass intestinal or hepatic metabolism. Rapid hydrolysis of CAT002 in human intestinal homogenates indicated intestinal metabolism as the primary mechanism of CAT002 hydrolysis.

Series [4] is described as follows: Human plasma stability at 37° C.
The nature of series [5]: Human hepatic microsomal stability (+/- mixed cofactors). Format: in vitro ADME.
Series [6] is described as follows: Plasma pharmacokinetics of GS-441524 following oral administration of CAT002 in Sprague-Dawley rats. Type of series: in vivo. Here is the method:
CAT002 (16 mg/kg; 10.8 mg/kg-equivalent of the parent nucleoside, GS-441524) was formulated in saline (1.60 mg/mL) and orally administered to fasted male rats (N=2). Whole blood samples were collected at the following timepoints (hours) in K2EDTA collection tubes: 0.25, 0.50, 1.00, 2.00, 4.00, 8.00, 24.0, 48.0.
(§2) Sample preparation. Plasma was isolated by protein precipitation in a 96-well plate at 0° C. An aliquot of 20 μL unknown sample, calibration standard, quality control and dilution quality control (if have), single blank, and double blank sample was added to the 96-well plate respectively. Each sample (except the double blank) was quenched with 100 μL of IS1 respectively (double blank sample was quenched with 100 μL of MeOH), and then the mixture was vortex-mixed for 10 min at 800 rpm and centrifuged for 15 min at 3220×g, 4° C. An aliquot of 60 μL supernatant was transferred to another clean 96-well plate and centrifuged for 5 min at 3220×g, 4° C., then the supernatant was directly injected for LC-MS/MS analysis.
LC-MS/MS analysis. Metabolites of interest (CAT002, GS-441524) were then quantified by LC-MS/MS (SCIEX LC-MS/MS-BZ Triple Quad 6500+, ACQUITY UPLC HSS T3 1.8 μm 2.1×50 mm Column; mobile phase A: 0.1% formic acid in water, mobile phase B: 0.1% formic acid in acetonitrile; flow rate: 0.65 mL/min.). Gradient conditions were as follows: 2% B over 0.2 minutes, 2-25% B from 0.2-1.2 minutes, 25-95% from 1.2-1.4 minutes, 95% from 1.4-2.1 minutes, 95-2% from 2.1-2.11 minutes, 2% from 2.11-2.2 minutes). The lower limit of quantification for both CAT002 and GS-441524 was 2.00 ng/mL. Data for both CAT002 and GS-441524 were fitted and analyzed by Phoenix NonWinLin 6.3 using noncompartmental model 200 (extravascular output). Data on directly administered oral GS-441524 were obtained from the NCATS OpenData Portal and are plotted alongside data generated from CAT002 for comparison (FIG. 1).

A short description of series [7]: Plasma pharmacokinetics of GS-441524 following oral administration of CAT002 in cynomolgus macaques. Type of series: in vivo. Here is the method:
CAT002 (7.8 mg/kg; 4.9 mg/kg-equivalent of the parent nucleoside, GS-441524) was formulated in saline (1.60 mg/mL) and orally administered to fasted male cynomolgus macaques (N=2). GS-441524 is in turn intracellularly converted to the bioactive ATP analogue, GS-443902. GS-443902 is known to have an antiviral activity and affinity for viral polymerase. See Gordon et al. JBC 2020; 295(20): 6785-6797; Tchesnokov et al. JBC 2020: 295(47):16156-16165; Yin et al. Science 2020: 368(6498): 1499-1504. Whole blood samples were collected at the following timepoints (hours) in K2EDTA collection tubes: 0.25, 0.50, 1.00, 2.00, 4.00, 8.00, 24.0, 48.0.
as §2
LC-MS/MS analysis. Metabolites of interest (CAT002, GS-441524) were then quantified by LC-MS/MS (SCIEX LC-MS/MS-BZ Triple Quad 6500+, ACQUITY UPLC HSS T3 1.8 μm 2.1×50 mm Column; mobile phase A: 0.1% formic acid in water, mobile phase B: 0.1% formic acid in acetonitrile; flow rate: 0.65 mL/min.). Gradient conditions were as follows: 2% B over 0.2 minutes, 2-25% B from 0.2-1.2 minutes, 25-95% from 1.2-1.4 minutes, 95% from 1.4-2.1 minutes, 95-2% from 2.1-2.11 minutes, 2% from 2.11-2.2 minutes). The lower limit of quantification for 1.00 ng/mL for CAT002 and 2.00 ng/mL for GS-441524. Data for both CAT002 and GS-441524 were fitted and analyzed by Phoenix NonWinLin 6.3 using noncompartmental model 200 (extravascular output). […]

Series [8] in a line: Plasma pharmacokinetics of GS-441524 following oral administration of CAT002 in humans. Type of series: in vivo. Here is the method:
CAT002 (HCl salt) was administered as excipient-less gelatin capsules to healthy participants (N=2) in the fasted state. Participant 1 (Subject 1) is a healthy person and Participant 2 (Subject 2) is a healthy person. Both Participants 1 and 2 were administered 5.4 mg/kg CAT002 (3 mg/kg-equivalent GS-441524). Whole blood samples were collected at the following timepoints (hours) in K2EDTA collection tubes: 0.5, 1, 3.6, 8, 24, 43. Plasma was isolated by centrifugation and samples were stored at −78° C. before analysis.
In-life PK of orally administered GS-441524. GS-441524 was administered as an excipient-less gelatin capsule (200 mg) to Participant 1 in the fasted state. Whole blood samples were collected at the following timepoints (hours) in K2EDTA collection tubes: 0.5, 1, 3.6, 8, 24, 43. Plasma was isolated by centrifugation and samples were stored at −78° C. before analysis. Sample preparation. An aliquot of 20 μL unknown sample, calibration standard, quality control and dilution quality control (if have), single blank, and double blank sample was added to the 96-well plate respectively. Each sample (except the double blank) was quenched with 100 μL of IS1 respectively (double blank sample was quenched with 100 μL of MeOH), and then the mixture was vortex-mixed for 10 min at 800 rpm and centrifuged for 15 min at 3220×g, 4° C. An aliquot of 60 μL supernatant was transferred to another clean 96-well plate and centrifuged for 5 min at 3220×g, 4° C., then the supernatant was directly injected for LC-MS/MS analysis.
LC-MS/MS analysis. Metabolites of interest (GS-441524) were then quantified by LC-MS/MS (SCIEX LC-MS/MS-BZ Triple Quad 6500+, ACQUITY UPLC HSS T3 1.8 μm 2.1×50 mm Column; mobile phase A: 0.1% formic acid in water, mobile phase B: 0.1% formic acid in acetonitrile; flow rate: 0.65 mL/min.). […] The lower limit of quantification was 1.00 ng/mL. Data for both CAT002 and GS-441524 were fitted and analyzed by Phoenix NonWinLin 6.3 using noncompartmental model 200 (extravascular output) (FIG. 3).

[9] abbreviates: oral CAT002, analyte GS-441524 in plasma.
The mark [10] stands for this setting: oral CAT002 in aqueous solution.

As to `N#C[C@@]1(c2ccc3c(N)ncnn23)O[C@H](CO)[C@@H](O)[C@H]1O` [GS-441524, reference compound], the “Thermodynamic solubility at pH 7.4” value in [1] came to 0.04 mg/mL. The “Phosphate buffer stability at 25° C., T1/2” value in series [2] (pH not specified) is given as “Stable”. Besides, in the series with Caco-2, the “Caco-2 permeability AB” value is 0.17 cm/sec•10^6, the “Caco-2 permeability BA” value came out at 2.1 cm/sec•10^6 and the “Caco-2 Efflux” value amounted to 12.4. For the same compound, the “Human intestinal S9 stability at 37° C.” value in [3] is reported as “Stable”. Moreover, the “Human plasma stability at 37° C.” value in series [4] (plasma type not specified) is “Stable”.

As to “((2R,3S,4R,5R)-5-(4-aminopyrrolo[2,1-f][1,2,4]triazin-7-yl)-5-cyano-3,4-dihydroxytetrahydrofuran-2-yl)methyl D-valinate [CAT002]”, in series [1] (neutral pH, relative to GS-441524), the “aqueous solubility at neutral pH, fold greater than GS-441524” value came to 87 fold. The “Thermodynamic solubility at pH 7.4” value in [1] was determined as 3.4 mg/mL. For the same compound, the “Phosphate buffer stability at 25° C., T1/2” value in series [2] (pH 3.0) is recorded as “pH 3.0: Stable”; in [2] (pH 7.4), “pH 7.4: 30 hours”. The “Caco-2 permeability AB” value in the series with Caco-2 is 0.55 cm/sec•10^6. Also, the “Caco-2 permeability BA” value in the series on Caco-2 is listed as 0.45 cm/sec•10^6. Further, in the series on Caco-2, the “Caco-2 Efflux” value amounted to 0.8. Also, the “Human intestinal S9 stability at 37° C.” value in [3] came out at 19.5 min. For the same compound, the “Human hepatic microsomal stability, T1/2” value in series [5] is 67 minutes (− cofactors). The “plasma levels of CAT002 (for determining its half-life)” value in series [6] (oral CAT002, analyte CAT002) is listed as “either too low or below the limit of quantification”; in series [7] (oral CAT002, analyte CAT002) it was “either too low or below the limit of quantification”; in series [8] (oral CAT002, analyte CAT002), “either too low or below the limit of quantification”. The “half-life of GS-441524 derived from CAT002” value in [6] (setting [9]) stood at 3 h; in series [7] (setting [9]), 8 h; in series [8] (setting [9]), 7.3 h. The “plasma exposure to GS-441524 with respect to Cmax, fold higher than previously reported for equivalent doses of oral GS-441524 in organic solution” value in series [6] (setting [10]) and in series [7] (setting [10]) was “approximately 6 fold” throughout. Also, the “plasma exposure of the core nucleoside with respect to Cmax, fold higher than oral solution of GS-441524 at an equivalent per-molar dose” value in series [8] (oral CAT002 powder-in-capsule formulation) is reported as “approximately 4 fold”. The entries for the “Human plasma stability at 37° C.” value in series [4] (EDTA plasma) and in series [4] (Heparin plasma) were “EDTA plasma: 195 minutes” and “Heparin plasma: >289.1 minutes”, respectively.
